Data reported in article PMC11259132, “Tyrosine phenol-lyase inhibitor quercetin reduces fecal phenol levels in mice” (PNAS Nexus, 2024).
Where two headings read alike, the source gives them in different places.

Key:
Type in all cases: biochemical
[1] = biological target: T1, Tyrosine phenol-lyase (TPL) (Morganella morganii, UniProt J7TAF3); assay: recombinant TPL assay, phenol by LC-MS; Lineweaver-Burk kinetics
T1 construct: recombinant TPL from M. morganii ssp. morganii (JCM1672), pET-15b

[2] = biological target: T1, Tyrosine phenol-lyase (TPL)
[3] = biological target: T2, Tyrosine phenol-lyase (TPL) (Citrobacter koseri, UniProt A8AM34); assay: recombinant TPL assay at […] inhibitor, phenol by LC-MS
T2 construct: recombinant TPL from C. koseri (JCM1658), pET-15b
T2 sequence (A8AM34 1-465): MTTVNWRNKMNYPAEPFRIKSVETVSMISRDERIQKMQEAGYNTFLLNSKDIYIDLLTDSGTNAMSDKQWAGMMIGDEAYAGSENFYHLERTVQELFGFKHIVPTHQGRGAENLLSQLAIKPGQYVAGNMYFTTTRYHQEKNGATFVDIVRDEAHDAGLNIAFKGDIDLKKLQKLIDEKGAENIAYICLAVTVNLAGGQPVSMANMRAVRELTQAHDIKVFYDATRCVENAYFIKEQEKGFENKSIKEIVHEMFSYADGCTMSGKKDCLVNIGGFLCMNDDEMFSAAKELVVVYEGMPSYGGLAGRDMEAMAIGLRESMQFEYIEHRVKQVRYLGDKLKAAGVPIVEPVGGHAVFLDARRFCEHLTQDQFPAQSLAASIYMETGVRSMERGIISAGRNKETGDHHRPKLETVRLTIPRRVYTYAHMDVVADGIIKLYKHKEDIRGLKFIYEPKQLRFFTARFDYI

T1 sequence (J7TAF3 1-456): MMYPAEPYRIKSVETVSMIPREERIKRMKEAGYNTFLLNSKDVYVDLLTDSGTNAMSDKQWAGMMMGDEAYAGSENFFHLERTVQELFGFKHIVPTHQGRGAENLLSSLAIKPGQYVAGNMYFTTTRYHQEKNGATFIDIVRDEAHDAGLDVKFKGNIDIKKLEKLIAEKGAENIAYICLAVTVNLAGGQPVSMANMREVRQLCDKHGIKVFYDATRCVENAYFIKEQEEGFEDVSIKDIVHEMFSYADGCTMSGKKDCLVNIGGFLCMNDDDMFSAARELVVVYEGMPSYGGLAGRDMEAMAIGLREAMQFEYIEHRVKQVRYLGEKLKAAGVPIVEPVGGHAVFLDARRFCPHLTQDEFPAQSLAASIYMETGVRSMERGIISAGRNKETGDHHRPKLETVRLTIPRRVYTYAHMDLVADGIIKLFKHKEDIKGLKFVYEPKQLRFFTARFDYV

Work on `N[C@@H](Cc1ccc(O)cn1)C(=O)O` [2-aza-Tyr] yielded a Ki ([1]; read-out: Ki) of 42 µM.

`O=c1cc(-c2ccc(O)c(O)c2)oc2cc(O)cc(O)c12` [luteolin] was tested, and the “recombinant TPL assay at 500 μM inhibitor, phenol by LC-MS” value [2] was “structural analogs of quercetin, including taxifolin, kaempferol, luteolin, and myricetin, significantly inhibited TPL-catalyzed phenol production”.

`O=c1c(O)c(-c2ccc(O)c(O)c2)oc2cc(O)cc(O)c12` [quercetin] was tested, and the “recombinant TPL assay at 500 μM inhibitor, phenol by LC-MS” value [3] was “The strongest inhibitory activity of quercetin was confirmed using another recombinant TPL isolated from Citrobacter koseri (JCM1658; Fig. 1B)” and the Ki [1] was 19.9 µM.

`O=C1c2c(O)cc(O)cc2O[C@H](c2ccc(O)c(O)c2)[C@H]1O` [taxifolin] was tested, and the “recombinant TPL assay at 500 μM inhibitor, phenol by LC-MS” value [2] was “structural analogs of quercetin, including taxifolin, kaempferol, luteolin, and myricetin, significantly inhibited TPL-catalyzed phenol production”.

In the case of `O=c1c(O)c(-c2ccc(O)cc2)oc2cc(O)cc(O)c12` [kaempferol], the “recombinant TPL assay at 500 μM inhibitor, phenol by LC-MS” value [2] is reported as “structural analogs of quercetin, including taxifolin, kaempferol, luteolin, and myricetin, significantly inhibited TPL-catalyzed phenol production”.
